Measurements taken from PMC11231141, “Ube3a unsilencer for the potential treatment of Angelman syndrome” (Nature Communications, 2024).

Key:
[1] = tested on: UBE3A protein; test: western blot of UBE3A protein in Ube3a m-/p+ primary neurons; format: cell-based, mouse; details: 72 h at DIV7, 0.3 µM topotecan, 1 µM (S)-PHA533533, 0.1 µM 3, 0.3 µM (±)-4
Method: 2’ MOE gapmer antisense oligonucleotides (ASOs) designed to target mouse Cdk2 sequence […], Cdk5 sequence […], Top1 sequence […], and scrambled […] sequence as a negative control (Integrated DNA Technologies) were formulated in water and added to cultured cortical neurons grown on 6-well plates at DIV5 at a final concentration of 10 μM. Neurons were further cultured and treated at DIV7 with vehicle (0.1% DMSO) or the indicated compounds for 72 h. For western blot analysis, neurons were washed once with PBS and then lysed using RIPA buffer (50 mM Tris-HCl pH 8.0, 150 mM NaCl, 1% NP−40, 0.5% Na-deoxycholate, 0.5% SDS) and protease inhibitor cocktail (P8340, MilliporeSigma) on ice.

[2] = tested on: UBE3A mRNA; set-up: method as in Sen et al.3; details: 11-week human cortical organoids, 72 hours, 1M topotecan, ref Sen et al.3; cited from earlier work
[3] = tested on: CDK2/cyclin E; set-up: method as in PMID 15828833; details: read-out: IC50 against CDK2/cyclin E; cited from earlier work
[4] = tested on: UBE3A mRNA
Text: The specificity of the amplification products was verified by melting curve analysis.

SMILES | UBE3A protein levels vs DMSO [1] | increase of UBE3A mRNA levels [2] | IC50 [3] | UBE3A mRNA levels vs DMSO [4]
CC[C@@]1(O)C(=O)OCc2c1cc1n(c2=O)Cc2cc3c(CN(C)C)c(O)ccc3nc2-1 [Topotecan, reference compound] | significantly increased | 1.8 fold | – | –
C[C@H](C(=O)Nc1cc(C2CC2)[nH]n1)c1ccc(N2CCCC2=O)cc1 [(S)-PHA533533] | – | – | 55 nM | does not affect
